Assay results reported in US10173999B2, “Cyclic amine derivative and pharmaceutical use thereof” (Toray Industries, Inc., priority 2015, dated 2019).
Counter-ions that a name gives are not always drawn.

How the values were obtained:
[1] = tested on: mouse partial sciatic nerve ligation model (neuropathic pain); assay: Mouse partial sciatic nerve ligation model (Seltzer model), von Frey test; assay type: in vivo; conditions: for dose from which a statistically significant analgesic action started / persistence of analgesic action / time of strongest analgesic action after oral administration: oral administration; for dose from which a statistically significant analgesic action started: von Frey test; for persistence of analgesic action / time of strongest analgesic action after oral administration: von Frey test at 1, 2, 3 h
Procedure: The mouse partial sciatic nerve ligation model was prepared in accordance with the method of Seltzer et al. (Malmberg et al., Pain, vol. 76, p. 215-222, 1998).
Slc: ICR mice (5 weeks old, male; from Japan SLC, Inc.) or Cr1: CD1 (ICR) mice (5 weeks old, male; from CHARLES RIVER LABORATORIES JAPAN, INC.) were anesthetized with sodium pentobarbital (70 mg/kg, intraperitoneal administration). The sciatic nerve at the femoral region of the right hind paw of each mouse was exposed and triply ligated tightly with silk suture of 8-0 (from NATSUME SEISAKUSHO CO., LTD.) under a stereomicroscope so that only half thickness of the nerve was trapped in the ligature. A group of mice thus treated was designated as a partial sciatic nerve ligation group. A group of mice whose sciatic nerve was just exposed and not ligated was designated as a sham surgery group.
Evaluation of neuropathic pain (hereinafter referred to as von Frey test) was performed as follows. Mice were conditioned for at least one hour in an acrylic cage for measurement (from NATSUME SEISAKUSHO CO. LTD. or SHINANO SEISAKUSHO) placed on a wire net. Thereafter, using a filament (from North Coast Medical or neuroscience) which exerted a pressure of 0.16 g, the mice were subjected to mechanical tactile stimulus by applying the filament to the plantar surface of the right hind paw 3 times, each for 3 seconds, with an interval of 3 seconds.
Seven days after the sciatic nerve ligation surgery, the compound of Example 1, 2, 3, 4, 5, 7, 8, 9, 10, 11, 12 or 13 (10 mg/kg for each of the compounds of Example 1, 2, 3, 4, 5, 8, 10 and 13, 0.01 to 1 mg/kg for the compound of Example 7, 0.01 to 10 mg/kg for the compound of Example 9; 0.001 to 0.1 mg/kg for the compound of Example 11; and 0.01 to 1 mg/kg for the compound of Example 12) or pregabalin as a positive control (10 mg/kg; Bosche Scientific) was dissolved in distilled water and orally administered to mice of the partial sciatic nerve ligation group. The groups of the mice in the partial sciatic nerve ligation mouse to which the compound of Example 1, 2, 3, 4, 5, 7, 8, 9, 10, 11, 12 or 13 was administered were designated as a “partial sciatic nerve ligation+the compound of Example 1” group; a “partial sciatic nerve ligation+the compound of Example 2” group; a “partial sciatic nerve ligation+the compound of Example 3” group; a “partial sciatic nerve ligation+the compound of Example 4” group; a “partial sciatic nerve ligation+the compound of Example 5” group; a “partial sciatic nerve ligation+the compound of Example 7” group; a “partial sciatic nerve ligation+the compound of Example 8” group; a “partial sciatic nerve ligation+the compound of Example 9” group; a “partial sciatic nerve ligation+the compound of Example 10” group; a “partial sciatic nerve ligation+the compound of Example 11” group; a “partial sciatic nerve ligation+the compound of Example 12” group; and a “partial sciatic nerve ligation+the compound of Example 13” group, respectively. The partial sciatic nerve ligation mouse group to which pregabalin was administered was designated as a “partial sciatic nerve ligation+pregabalin” group. A group wherein distilled water was orally administered to the mice of the partial sciatic nerve ligation group was designated as a “partial sciatic nerve ligation+distilled water” group. A group wherein distilled water was orally administered to the mice of the sham surgery group was designated as a “sham surgery+distilled water” group.
The von Frey test was carried out before oral administration of a test compound (pre-value), one hour, two hours, and three hours after the oral administration of a test compound.
Slc: ICR mice (5 weeks old, male; Japan SLC, Inc.) were anesthetized with sodium pentobarbital (70 mg/kg, intraperitoneal administration).

[2] = tested on: mouse partial sciatic nerve ligation model (neuropathic pain); assay: as above; assay type: in vivo; conditions: Comparative Example 7: oral, 7 days after ligation, 1-3 h after dosing; 0.01-1 mg/kg (Comp Ex 1), 10 mg/kg (Comp Ex 3-6, pregabalin); vs ligation+distilled water; t-test corrected by Dunnett
[3] = tested on: Canine aortic smooth muscle cells; assay: Inducibility of cytoplasmic vacuolation in canine aortic smooth muscle cells; assay type: cell-based; parameters: key: Present: The term “present” in the tables means that cytoplasmic vacuolation was observed; Absent: the term “absent” means that cytoplasmic vacuolation was not observed; conditions: Concentration: 1.0 mmol/L, Treatment time: 24 hours
Procedure: As a test compound, the compound of Example 3, 9, 11, 12 or compounds of Comparative Examples 2 to 6 were used. Canine aortic smooth muscle cells (Canine Aortic Smooth Muscle Cells, supply source: Toyobo Co., Ltd.) or human aortic smooth muscle cells of (T/G HA-VSMG, supply source: ATCC) were treated with a test compound (1.0 or 1.2 mmol/L in concentration) for 24 hours or 2 weeks. The cells were stained with HE, immunohistochemically for LAMP-2 or toluidine blue, and thereafter the presence or absence of cytoplasmic vacuolation was determined by using an optical microscope.

SMILES	dose from which a statistically significant analgesic action started [1] [µg/kg]	persistence of analgesic action [1]	time of strongest analgesic action after oral administration [1]	analgesic action in von Frey test (total score) [2]	Inducibility of cytoplasmic vacuolation [3]	time the analgesic action lasted after oral administration ([1]; dose of 0.1 mg/kg) [h]	time the analgesic action lasted after oral administration ([1]; from a dose of 0.001 mg/kg) [h]	analgesic action in von Frey test (total score) ([1]; mouse, in vivo)
CN(C)C1CCN(C(=O)CCc2nccn2C)CC1 [Comparative Example 1, 1-(4-(dimethylamino)piperidin-1-yl)-3-(1-methyl-1H-imidazol-2-yl)propan-1-one hydrochloride]	10	tended to decrease 2 hours and 3 hours later	one	statistically significant analgesic action	–	–	–	–
CC(C)n1ccnc1CCC(=O)N1CCC(N(C)C)CC1 [Comparative Example 6, 1-(4-(dimethylamino)piperidin-1-yl)-3-(1-isopropyl-1H-imidazol-2-yl)propan-1-one hydrochloride]	–	tended to decrease 2 hours and 3 hours later	one	statistically significant analgesic action	Present	–	–	–
CN(C)C1CCN(C(=O)C[C@H](O)c2nccn2C)CC1 [Example 11, (S)-1-(4-(dimethylamino)piperidin-1-yl)-3-hydroxy-3-(1-methyl-1H-imidazol-2-yl)propan-1-one]	1	–	–	–	Absent	3	2	statistically significant analgesic action
